5 compounds from publication PMC9848351, “Discovery of new pyridine-quinoline hybrids as competitive and non-competitive PIM-1 kinase inhibitors with apoptosis induction and caspase 3/7 activation capabilities” (Journal of Enzyme Inhibition and Medicinal Chemistry, 2023) can be followed below.

The target of one data set is PIM-2 kinase (Homo sapiens, UniProt Q9P1W9). In words: PIM-2 kinase inhibitory activity (Promega kinase assay kit).
Data set [1] has as its target T1, PIM-1 kinase (Homo sapiens, UniProt P11309). In words: Mechanism of PIM-1 kinase inhibition, Lineweaver–Burk double-reciprocal plot. Also noted: purchased Promega Corporation #V4032. The data set is classed as biochemical. To be noted: for Vmax compared with control: Y-intercept.
Another data set deals with HepG-2. Briefly: Flow cytometric annexin V/PI analysis of apoptosis, HepG-2. To be noted: IC50 of compound, 72 h, mean ± SEM. It is filed as cell-based, human. For orientation: Flow cytometry measures light scatter and fluorescence of single cells or particles in a stream.
Data set [2] deals with Colon cancer cells (Caco-2). In words: MTT anticancer activity, Caco-2. The data set is classed as cell-based, human. To be noted: for IC50: Homo sapiens, Caco-2, 72 h, MTT, mean ± SEM; for Caco-2 LE: ligand efficiency from IC50 and number of heavy atoms; for Caco-2 LLE: ligand lipophilic efficiency, potency in terms of lipophilicity; for Caco-2 SI: selectivity index, Wi-38 versus Caco-2. The gist of the method:
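Cells seeded at 5x10^3/well (Caco-2 in DMEM, others in RPMI-1640, 10% FBS) and exposed to serial compound concentrations for 72 h at 37 °C, 5% CO2, starting 24 h after seeding. MTT (3 h, 37 °C) read at 570 nm after DMSO solubilisation; IC50 calculated from viability.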

Data set [3] has as its target T1, PIM-1 kinase. In words: PIM-1 kinase inhibitory activity (Promega kinase assay kit).
For data set [4], the system named is caspase 3/7 in HepG-2 cells. Briefly: Caspase 3/7 activation assay (Apo-ONE kit). The data set is classed as cell-based, human. To be noted: caspase 3/7, relative to untreated HepG2 cells; mean ± SEM. From the text:
The percentage of caspase 3/7 activation was quantified using the Apo-ONE ® caspase 3/7 kit following the manufacturer’s instructions[27] (Supplementary Page S56).
It’s a fluorescence assay that measures caspase-3 and −7 activities. Caspase 3/7 activators are well known as apoptotic inducers.
Caspase 3/7 activation assay
The Apo-ONE ® caspase 3/7 kit following the manufacturer’s instructions was used for quantifying the percentage of caspase 3/7 activation. The fluorescence substrate present in the kit was cut by caspases to produce fluorescence signal. This signal was measured by the fluorescence omega microplate reader (BMG LabTech, Germany) at 490 nm excitation and 520 nm emission.
Data were expressed as mean ± standard error of the mean (SEM). Statistical significance was estimated by the multiple comparisons Tukey post-hoc analysis of variance (ANOVA) using the SPSS16 program. When p < 0.05, the differences were marked as statistically significant.
PIM-1 and PIM-2 kinase inhibitory activity
PIM-1 and PIM-2 kinase utilizing PIM-1 and PIM-2 Kinase Assay Kit – Promega Corporation catalog #V4032, following the manufacturer’s instructions 26 […]
Information Classification: General

T1 sequence (P11309 whole entry): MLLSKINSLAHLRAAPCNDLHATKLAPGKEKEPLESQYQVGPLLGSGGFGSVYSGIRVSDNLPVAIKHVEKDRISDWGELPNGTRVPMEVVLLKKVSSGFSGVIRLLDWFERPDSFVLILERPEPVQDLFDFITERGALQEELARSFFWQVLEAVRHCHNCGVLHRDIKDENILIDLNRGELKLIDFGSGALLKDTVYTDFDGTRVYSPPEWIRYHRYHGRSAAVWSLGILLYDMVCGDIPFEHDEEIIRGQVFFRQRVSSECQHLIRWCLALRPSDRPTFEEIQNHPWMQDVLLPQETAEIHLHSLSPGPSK
Sequence of PIM-2 kinase (Q9P1W9 whole entry): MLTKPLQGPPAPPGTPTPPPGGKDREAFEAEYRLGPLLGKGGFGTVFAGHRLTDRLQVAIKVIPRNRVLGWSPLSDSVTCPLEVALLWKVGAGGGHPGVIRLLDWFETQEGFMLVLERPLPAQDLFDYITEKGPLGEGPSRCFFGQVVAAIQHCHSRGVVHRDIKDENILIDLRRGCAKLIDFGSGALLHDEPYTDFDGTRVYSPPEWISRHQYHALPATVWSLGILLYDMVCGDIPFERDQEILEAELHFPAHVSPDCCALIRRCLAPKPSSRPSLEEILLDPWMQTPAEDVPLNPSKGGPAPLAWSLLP

Regarding `N#Cc1c(-c2cc3cc(Cl)ccc3nc2N2CCOCC2)cc(-c2cccc(O)c2)[nH]c1=O` [5b, 4-(6-Chloro-2-morpholin-4-yl-quinolin-3-yl)-6-(3-hydroxyphenyl)-2-oxo-1,2-dihydropyridine-3-carbonitrile], it took 670 nM to reach half-maximal inhibition on PIM-2 kinase (IC50). On PIM-1 kinase [1], the “mechanism of PIM-1 kinase inhibition” value is recorded as “competitive inhibitors” and the “Vmax compared with control” value is given as “the same Vmax in comparison with control”. Besides, the “total percentage of the apoptotic cell population, HepG-2” value (“total percentage” below) in the data set with HepG-2 stood at 58.9 ± 0.88%. In data set [2], inhibition was half-maximal at 45.3 ± 1 nM (IC50), the “Caco-2 LE” value amounted to 0.30, the “Caco-2 LLE” value came out at 3.28 and the “Caco-2 SI” value was 3.775.

With `COc1ccc2nc(N3CCOCC3)c(-c3cc(-c4cccc(O)c4)[nH]c(=O)c3C#N)cc2c1` [5c, 6-(3-Hydroxyphenyl)-4-(6-methoxy-2-morpholin-4-yl-quinolin-3-yl)-2-oxo-1,2-dihydropyridine-3-carbonitrile], it took 1660 nM to reach half-maximal inhibition at PIM-2 kinase (IC50). Also, at PIM-1 kinase [1], the “mechanism of PIM-1 kinase inhibition” value is “competitive inhibitors” and the “Vmax compared with control” value is reported as “the same Vmax in comparison with control”. The “total percentage” value in the data set with HepG-2 is reported as 54.14 ± 0.42%. Further, in data set [2], half-maximal inhibition (IC50) was put at 36.1 ± 0.1 nM, the “Caco-2 LE” value came out at 0.30, the “Caco-2 LLE” value is given as 4.00 and the “Caco-2 SI” value turned out to be 19.861.

Consider `N#Cc1c(-c2cc3ccccc3[nH]c2=O)cc(-c2cccc(O)c2)[nH]c1=O` [13a, 6-(3-Hydroxyphenyl)-2-oxo-4-(2-oxo-1,2-dihydroquinolin-3-yl)-1,2-dihydropyridine-3-carbonitrile], for which, on PIM-1 kinase [1], the “mechanism of PIM-1 kinase inhibition” value is “both competitive and non-competitive inhibitor”; the “Vmax compared with control” value was “reduced in Vmax value”. The “total percentage” value with HepG-2 worked out at 70.59 ± 1.07%. Half-maximal inhibition on PIM-1 kinase [3] (IC50) was put at 1270 nM. Moreover, in data set [2], 22.8 ± 1 nM corresponded to half-maximal inhibition (IC50), the “Caco-2 LE” value turned out to be 0.39, the “Caco-2 LLE” value stood at 5.31 and the “Caco-2 SI” value is recorded as 1.118.

`COc1ccc2[nH]c(=O)c(-c3cc(-c4cccc(O)c4)[nH]c(=O)c3C#N)cc2c1` [13c, 6-(3-Hydroxyphenyl)-4-(6-methoxy-2-oxo-1,2-dihydroquinolin-3-yl)-2-oxo-1,2-dihydropyridine-3-carbonitrile]: the “total percentage” value with HepG-2 is on record as 66.83 ± 1.32%. In addition, the IC50 (usually the concentration needed to halve the response being measured) against PIM-1 kinase [3] was 7780 nM. For the same compound, in data set [2], the IC50 is 33.7 ± 6 nM, the “Caco-2 LE” value worked out at 0.35, the “Caco-2 LLE” value came out at 5.11 and the “Caco-2 SI” value came out at 1.033.

Turning to `N#Cc1c(-c2cc3ccccc3[nH]c2=O)cc(-c2cccc(O)c2)nc1S` [14a, 6-(3-Hydroxyphenyl)-2-mercapto-4-(2-oxo-1,2-dihydroquinolin-3-yl)pyridine-3-carbonitrile], on PIM-1 kinase [1], the “mechanism of PIM-1 kinase inhibition” value is given as “competitive inhibitors” and the “Vmax compared with control” value is recorded as “the same Vmax in comparison with control”. The “total percentage” value in the data set on HepG-2 worked out at 42.155 ± 0.16%. This compound displayed an IC50 at PIM-1 kinase [3] of 385 nM. In data set [2], inhibition was half-maximal at 14.1 ± 4 nM (IC50), the “Caco-2 LE” value amounted to 0.40, the “Caco-2 LLE” value was 5.18 and the “Caco-2 SI” value was determined as 21.206. Moreover, the “Fold increase in caspase activity” value in data set [4] is 1.86 ± 0.11 fold.
